Test [1] has as its system homozygous ALDH2*2 knock-in mice. Put plainly: mouse surgical model of endometriosis, endometrial cyst area, ALDH2*2 knock-in mice. In kind it is in vivo. The conditions noted are these: ALDH2*2 mice, vs DMSO. The text has this: (§1) FIG. 2A-2C. Relative to wild type mice, ALDH2*2 mice develop larger endometrial cysts by 3 days after endometriosis surgery. FIG. 2A In a mouse surgical model of endometriosis, three (2 mm×2 mm) uterine horn auto transplants are sutured onto cascading mesenteric arteries which in turn since located outside the uterus develop cysts in the abdomen. FIG. 2B Female wild type (C57/BL6) and ALDH2*2 knock-in mice on the same genetic background 8-10 weeks of age were induced with endometriosis and sacrificed 1, 3, or 28 days later. Endometrial cysts were collected and cyst area was measured (length×width). FIG. 2C Average cyst area was calculated for each group (wild type: blue, ALDH2*2: red) of mice at day 1, 3, and 28. Data are presented as mean±SEM, n=6 mice/group.
(§2) FIG. 3A-3D. Alda-1 reduces endometrial cyst size 3 days and 28 days after endometriosis induction. FIG. 3A. […] FIG. 3B. […]
(§3) Briefly, mice were anesthetized with isoflurane (1-3%) and an off-midline (left side) incision made through the skin and muscle layer to expose the pelvic and abdominal organs. […] On day 1, 3, or 28 after endometriosis induction, mice were sacrificed, endometrial cyst length and width measured to calculate cyst area, and then the average cyst area per group determined.

In test [2] the test system is rodent models of inflammatory pain. The conditions noted are these: earlier work of the inventors; cited from earlier work.
Test [3] has as its system female Sprague-Dawley rats. In words: acetaldehyde-induced vaginal hyperalgesia, escape response to vaginal balloon distention. In kind it is in vivo, rat. The conditions noted are these: Alda-1 1 mg/kg i.p. alone, in the absence of the noxious stimulus. The text has this: FIG. 1A-1C. Alda-1 mitigates acetaldehyde-induced vaginal hyperalgesia in rats. FIG. 1A Five female Sprague-Dawley rats initially weighing 150-175 g were trained over a period of ˜4 weeks to terminate an escape response from the noxious stimuli produced by a balloon inflated in the vagina. Top image: Rats trained to be accustomed to the testing chamber. Bottom image: The escape response assessed by the rat poking its head into a tube. This response in turn breaks an infrared beam and causes the vaginal balloon to deflate. […] The shaded area is calculated as the area under the curve. n=5 rats/volume FIG. 1C Histogram of vaginal escape response expressed as the area under the curve calculated using standard trapezoid methods. […]
Alda and endonetriosis: Although rodent inflammatory pain models such as carageenan and CFA may represent some aspects of endometriosis, there is a validated rat model of endometriosis-associated pain, which produces signs and painful symptoms similar to those in women (S. McAllister, K. McGinty, D. Resuehr, K. Berkley. Endometriosis-induced vaginal hyperalgesia in the rat: Role of the ectopic growths and their innervation. Pain. 147: 255-264 (2009)). […] The rat is then monitored to determine an escape response, which is assessed by the rodent breaking an infrared beam with its nose; this, in turn, causes the inflated balloon in the vagina to deflate (FIG. 1A). […]

Test [4] relates to wild type C57/BL6 mice. Put plainly: mouse surgical model of endometriosis, endometrial cyst area, wild type mice. It is filed as in vivo. The conditions noted are these: vs DMSO.
Description: as §1, §2, §3

Where [5] appears, read: Alda-1 5 mg/kg subcutaneous Alzet pump for 3 days.

Entries after “also recorded” stand apart in the source; their conditions may differ.

The text below walks through data of patent US11974981B2, “Methods and compositions for treating endometriosis and endometriosis associated symptoms” (The Board of Trustees of the Leland Stanford Junior …, priority 2017, dated 2024).

Consider `O=C(NCc1ccc2c(c1)OCO2)c1c(Cl)cccc1Cl` [Alda-1, N-(1,3-benzodioxol-5-ylmethyl)-2,6-dichlorobenzamide], for which the “average endometrial cyst area” value in test [1] (setting [5]) was “significant reduction; also recorded: significantly reduced”; in test [1] (Alda-1 5 mg/kg subcutaneous Alzet pump for 28 days), “significant reduction; also recorded: significantly reduced”; in test [4] (setting [5]), “significant reduction”; in test [4] (Alda-1 5 mg/kg subcutaneous Alzet pump for 28 days, 5 mg/kg), “significant reduction; also recorded: significantly reduced”. In addition, the pain thresholds entry in test [2] is “increases pain thresholds”. The “vaginal escape response (area under the curve), effect of compound alone” value in test [3] is recorded as “No effect”.
